Measured values: PMC9570838, “JND4135, a New Type II TRK Inhibitor, Overcomes TRK xDFG and Other Mutation Resistance In Vitro and In Vivo” (Molecules, 2022)
Read-outs that look alike come from different tables or passages of the source.

Key:
BaF3 QKI-TRKB = experiment: BaF3 cell proliferation, CCK-8 assay; conditions: Mus musculus, BaF3, 72 h, read-out: IC50 (nM ± SD) WT QKI-TRKB
Experimental: (§1) Murine BaF3 cells were purchased from JRCB cell bank. The BaF3 cell lines, which stably express natively-fused TRKA/B/C or various point mutants, were self-established by following previously described procedures. Briefly, NTRK genes were totally synthesized and cloned into pCDNA3.1(+) vectors (Invitrogen, Carlsbad, CA, USA). […] Stable strains were established by selection of cells 2 weeks post-transfection with 800 μg/mL G418 (Merck, Whitehouse Station, NJ) and further selection after the withdrawal of interleukin-3 (IL-3, R&D) for 2 weeks. All of BaF3 stable cell lines were verified by DNA sequencing, protein expression and anti-proliferation activity against positive drugs. […] All cells were grown at 37 °C in a humidified 5% CO2 atmosphere.
(§2) Cells were placed in 96-well plates (5000~8000/well) in complete medium. […] IC50 values were calculated by concentration-response curve fitting using GraphPad Prism 5.0 software. Each IC50 value is expressed as mean ± SD.

Parental BaF3 (+IL3) = experiment: BaF3 cell proliferation, CCK-8 assay; conditions: Mus musculus, BaF3, 72 h, read-out: IC50 (nM ± SD) Parental BaF3 (+IL3)
Experimental: as §1, §2

BaF3 CD74-TRKA-G667C = experiment: BaF3 cell proliferation, CCK-8 assay; conditions: Mus musculus, BaF3, 72 h, read-out: IC50 (nM ± SD) xDFG CD74-TRKA-G667C
Experimental: as §1, §2

BaF3 ETV6-TRKC-G623R = experiment: BaF3 cell proliferation, CCK-8 assay; conditions: Mus musculus, BaF3, 72 h, read-out: IC50 (nM ± SD) Solvent Front ETV6-TRKC-G623R
Experimental: as §1, §2

BaF3 ETV6-TRKB-G639R = experiment: BaF3 cell proliferation, CCK-8 assay; conditions: Mus musculus, BaF3, 72 h, read-out: IC50 (nM ± SD) Solvent Front ETV6-TRKB-G639R
Experimental: as §1, §2

BaF3 CD74-TRKA = experiment: BaF3 cell proliferation, CCK-8 assay; conditions: Mus musculus, BaF3, 72 h, read-out: IC50 (nM ± SD) WT CD74-TRKA
Experimental: as §1, §2

BaF3 EML4-TRKC = experiment: BaF3 cell proliferation, CCK-8 assay; conditions: Mus musculus, BaF3, 72 h, read-out: IC50 (nM ± SD) WT EML4-TRKC
Experimental: as §1, §2

BaF3 ETV6-TRKB-F633L = experiment: BaF3 cell proliferation, CCK-8 assay; conditions: Mus musculus, BaF3, 72 h, read-out: IC50 (nM ± SD) Gatekeeper ETV6-TRKB-F633L
Experimental: as §1, §2

BaF3 ETV6-TRKB = experiment: BaF3 cell proliferation, CCK-8 assay; conditions: Mus musculus, BaF3, 72 h, read-out: IC50 (nM ± SD) WT ETV6-TRKB
Experimental: as §1, §2

BaF3 CD74-TRKA-F589L = experiment: BaF3 cell proliferation, CCK-8 assay; conditions: Mus musculus, BaF3, 72 h, read-out: IC50 (nM ± SD) Gatekeeper CD74-TRKA-F589L
Experimental: as §1, §2

BaF3 ETV6-TRKC-G696C = experiment: BaF3 cell proliferation, CCK-8 assay; conditions: Mus musculus, BaF3, 72 h, read-out: IC50 (nM ± SD) xDFG ETV6-TRKC-G696C
Experimental: as §1, §2

BaF3 MPRIP-TRKA = experiment: BaF3 cell proliferation, CCK-8 assay; conditions: read-out: IC50 (nM ± SD) WT MPRIP-TRKA
Experimental: as §1, §2

BaF3 ETV6-TRKC = experiment: BaF3 cell proliferation, CCK-8 assay; conditions: Mus musculus, BaF3, 72 h, read-out: IC50 (nM ± SD) WT ETV6-TRKC
Experimental: as §1, §2

BaF3 ETV6-TRKC-F617L = experiment: BaF3 cell proliferation, CCK-8 assay; conditions: Mus musculus, BaF3, 72 h, read-out: IC50 (nM ± SD) Gatekeeper ETV6-TRKC-F617L
Experimental: as §1, §2

BaF3 ETV6-TRKB-G709C = experiment: BaF3 cell proliferation, CCK-8 assay; conditions: Mus musculus, BaF3, 72 h, read-out: IC50 (nM ± SD) xDFG ETV6-TRKB-G709C
Experimental: as §1, §2

[1] = tested on: wild-type TRKA/B/C or solvent-front mutations; experiment: Multi-target kinase inhibitors in BaF3 cell proliferation assays (Table S3); assay type: cell-based, Murine
TRKA^G667C mutant = experiment: as above; assay type: cell-based, Murine
[2] = tested on: TRKs-xDGF mutants TRKA-G667C, TRKB-G709C and TRKC-G696C in stable BaF3 models; experiment: Western blot of xDFG mutant TRK signal pathway (Figure S2); assay type: cell-based, Murine; conditions: even at 200 nM, 6 h
Experimental: Cells were treated with various concentrations of each tested compound for a designated time. Then cells were lysed using 1 × SDS sample lysis buffer (CST recommended) with protease and phosphatase inhibitors. […] The films were blocked with 5% fat-free milk in TBS solution containing 0.5% Tween-20 for 4 h at room temperature, then incubated with the corresponding primary antibody (1:1000–1:200) overnight at 4 °C. After washing with TBST, HRP-conjugated secondary antibody was incubated for 2 h. The protein signals were visualized by ECL Western Blotting Detection Kit (Thermo Scientific, Waltham, MA, USA), and detected with Amersham Imager 600 system (GE, Boston, MA, USA).

[3] = tested on: BaF3 cells with solvent front mutations (TRKA^G595R, TRKB^G639R, TRKC^G623R); experiment: BaF3 cell proliferation, summary over solvent front lines; conditions: Mus musculus, BaF3, read-out: IC50 range in cells with solvent front mutations
Experimental: as §1, §2

BaF3 CD74-TRKA-G595R = experiment: BaF3 cell proliferation, CCK-8 assay; conditions: Mus musculus, BaF3, 72 h, read-out: IC50 (nM ± SD) Solvent Front CD74-TRKA-G595R
Experimental: as §1, §2

[4] = tested on: BaF3-CD74-TRKA-G667C cells; experiment: Apoptosis by flow cytometry (Annexin V / 7-AAD); assay type: cell-based, Murine; conditions: even at a concentration of 50 nM
Experimental: For analysis of the cell cycle, cells were harvested and washed twice with PBS after treatment for 24 h with indicated drugs or DMSO. […] The cells were then analyzed on a Guava easyCyte flow cytometer (Merck, Whitehouse Station, NJ, USA). For analysis of cell apoptosis, cells were harvested and washed twice with ice-cold PBS after treatment for 48 h with indicated drugs or DMSO. […] Finally, 400 μL of a 1 × BD binding buffer solution was replenished. The cells were then analyzed on a Guava easyCyte flow cytometer (Merck, Whitehouse Station, NJ, USA).

[5] = tested on: BaF3 cells with gatekeeper mutations (TRKA^F589L, TRKB^F663L, TRKC^F617L); experiment: BaF3 cell proliferation, summary over gatekeeper lines; conditions: Mus musculus, BaF3, read-out: IC50 in cells with gatekeeper mutations
Experimental: as §1, §2

For `CN1CCN(c2ccc(C(=O)Nc3n[nH]c4ccc(Cc5cc(F)cc(F)c5)cc34)c(NC3CCOCC3)c2)CC1` [Entrectinib], the IC50 (BaF3 QKI-TRKB) was 4.8 ± 1.6 nM, the IC50 (Parental BaF3 (+IL3)) was 2340 ± 202 nM and the IC50 (BaF3 CD74-TRKA-G667C) was 33.2 ± 3.2 nM. The IC50 (BaF3 ETV6-TRKC-G623R) was 617 ± 69.8 nM, the IC50 (BaF3 ETV6-TRKB-G639R) was 529 ± 130 nM and the IC50 (BaF3 CD74-TRKA) was 4.4 ± 1 nM. For the same molecule, the IC50 (BaF3 EML4-TRKC) was 5.2 ± 1.6 nM, the IC50 (BaF3 ETV6-TRKB-F633L) was 13 ± 3.6 nM and the IC50 (BaF3 ETV6-TRKB) was 8 ± 3.1 nM. It also gave an IC50 (BaF3 CD74-TRKA-F589L) of 2.1 ± 0.3 nM, an IC50 (BaF3 ETV6-TRKC-G696C) of 124 ± 60.4 nM and an IC50 (BaF3 MPRIP-TRKA; Mus musculus, BaF3, 72 h) of 1.6 ± 0.4 nM. For the same molecule, the IC50 (BaF3 ETV6-TRKC) was 7.8 ± 4.2 nM, the IC50 (BaF3 ETV6-TRKC-F617L) was 4.6 ± 2.8 nM and the IC50 (BaF3 ETV6-TRKB-G709C) was 285 ± 92.4 nM.
`C[C@H]1CNC(=O)c2cnn3ccc(nc23)N[C@H](C)c2cc(F)ccc2O1` [Repotrectinib] showed an IC50 (BaF3 QKI-TRKB) of 0.8 ± 0.7 nM, an IC50 (Parental BaF3 (+IL3)) of 906 ± 69 nM and an IC50 (BaF3 ETV6-TRKC-G623R) of 14.6 ± 4.7 nM. For the same molecule, the IC50 (BaF3 EML4-TRKC) was 2.7 ± 1.6 nM, the IC50 (BaF3 ETV6-TRKB-F633L) was 4.9 ± 2.2 nM and the IC50 (BaF3 ETV6-TRKB) was 2.3 ± 0.5 nM. It also gave an IC50 (BaF3 ETV6-TRKC-G696C) of 42.9 ± 33.6 nM, an IC50 (BaF3 MPRIP-TRKA; CCK-8, 72 h) of 1.1 ± 0.2 nM and an IC50 (BaF3 ETV6-TRKC) of 2.1 ± 0.9 nM. The IC50 (BaF3 ETV6-TRKC-F617L) was 2.1 ± 1.1 nM and the IC50 (BaF3 ETV6-TRKB-G709C) was 89.7 ± 38.8 nM.
`COc1cc2nccc(Oc3ccc(NC(=O)C4(C(=O)Nc5ccc(F)cc5)CC4)cc3)c2cc1OC` [cabozantinib] was tested, and the “activity against wild-type TRKA/B/C or solvent-front mutations” value [1] was “weak activity” and the “activity against TRKA^G667C mutant” value (TRKA^G667C mutant) was “good activity”.
With `C[C@@H]1CCc2ncc(F)cc2[C@H]2CCCN2c2ccn3ncc(c3n2)C(=O)N1` [Selitrectinib] the IC50 (BaF3 QKI-TRKB) was 1.5 ± 0.4 nM, the IC50 (Parental BaF3 (+IL3)) was > 10000 nM and the IC50 (BaF3 CD74-TRKA-G667C) was 66.3 ± 13 nM. For the same molecule, the IC50 (BaF3 ETV6-TRKC-G623R) was 9.6 ± 1.2 nM, the IC50 (BaF3 ETV6-TRKB-G639R) was 11.4 ± 2.2 nM and the “inhibition of the activation of TRKs-xDGF mutants” value [2] was “limited inhibition”. The IC50 (BaF3 CD74-TRKA) was 2.5 ± 0.2 nM, the IC50 (BaF3 EML4-TRKC) was 2.1 ± 0.2 nM and the IC50 [3] was 9.4 to 33.7 nM. For the same molecule, the IC50 (BaF3 CD74-TRKA-G595R) was 13.6 ± 3.3 nM, the IC50 (BaF3 ETV6-TRKB-F633L) was 55.8 ± 10.8 nM and the IC50 (BaF3 ETV6-TRKB) was 4.9 ± 1.4 nM. It also gave an IC50 (BaF3 CD74-TRKA-F589L) of 17.3 ± 2.2 nM, an IC50 (BaF3 ETV6-TRKC-G696C) of 98.4 ± 55 nM and an IC50 (BaF3 MPRIP-TRKA; Mus musculus, BaF3, 72 h) of 1.1 ± 0.4 nM. The IC50 (BaF3 ETV6-TRKC) was 1.7 ± 1.1 nM, the IC50 (BaF3 ETV6-TRKC-F617L) was 20.8 ± 7.9 nM and the “effect on cell cycle or apoptosis” value [4] was “little effect”. It also gave an IC50 (BaF3 ETV6-TRKB-G709C) of 168 ± 73 nM.
For `O=C(Nc1cnn2ccc(N3CCC[C@@H]3c3cc(F)ccc3F)nc12)N1CC[C@H](O)C1` [Larotrectinib], the IC50 (BaF3 QKI-TRKB) was 11.4 ± 4.2 nM, the IC50 (Parental BaF3 (+IL3)) was > 10000 nM and the IC50 (BaF3 CD74-TRKA-G667C) was 313 ± 48.5 nM. For the same molecule, the IC50 [5] was > 423 nM, the IC50 (BaF3 ETV6-TRKC-G623R) was 1270 ± 165 nM and the IC50 (BaF3 ETV6-TRKB-G639R) was 1900 ± 778 nM. The “inhibition of the activation of TRKs-xDGF mutants” value [2] was “limited inhibition”, the IC50 (BaF3 CD74-TRKA) was 8 ± 0.8 nM and the IC50 (BaF3 EML4-TRKC) was 21.7 ± 6.9 nM. It also gave an IC50 (BaF3 CD74-TRKA-G595R) of 1110 ± 251 nM, an IC50 (BaF3 ETV6-TRKB-F633L) of 1400 ± 214 nM and an IC50 (BaF3 ETV6-TRKB) of 24 ± 4.2 nM. The IC50 (BaF3 CD74-TRKA-F589L) was 423 ± 92.6 nM, the IC50 (BaF3 ETV6-TRKC-G696C) was 769 ± 325 nM and the IC50 (BaF3 MPRIP-TRKA; Mus musculus, BaF3, 72 h) was 4.8 ± 1.2 nM. For the same molecule, the IC50 (BaF3 ETV6-TRKC) was 11.2 ± 2.8 nM, the IC50 (BaF3 ETV6-TRKC-F617L) was 513 ± 156 nM and the “effect on cell cycle or apoptosis” value [4] was “little effect”. The IC50 (BaF3 ETV6-TRKB-G709C) was 1630 ± 821 nM.
In the case of `Cc1ccc(C(=O)Nc2ccc(CN3CCN(C)CC3)c(C(F)(F)F)c2)cc1C#Cc1cnc2cccnn12` [ponatinib], the “activity against wild-type TRKA/B/C or solvent-front mutations” value [1] is reported as “weak activity” and the “activity against TRKA^G667C mutant” value (TRKA^G667C mutant) is reported as “good activity”.
